Laboratory results: patent publication EP4563586A1, “NEW INHIBITORS OF LRRK2/PP1 INTERACTION” (Université Paris Cité, priority 2023, dated 2025)
Non-standard residues stand in square brackets, D forms with d. Residues, ends and D or L forms follow the SMILES beside them. No end group written: not given here. Ahx = NCCCCCC(=O)O

How the values were obtained:
[1] = Peptide stability in human serum (MALDI-TOF); type: in vitro ADME; conditions: for remaining at 24 h, 100 µM: after 24h of incubation at 37°C in human serum, 100 µM (Figure 6), read-out: peptide still present
Protocol: The peptides were incubated at 37°C in 250 µL of human serum (Gibco) for different periods of time. Samples were collected and peptide degradation stopped by freezing at -20°C. The peptide was extracted from samples using the Proteo Miner Protein Enrichment System (Bio-Rad). The percentage of intact peptide was estimated by MS using MALDI-TOFF using the protocol previously described (Bruker Autoflex II) according to the manufacturer's instructions. Measurements were performed in triplicate. MS data were analysed using the software Cliprot tools, Flex analysis, Bruker.

[2] = target: T1, Leucine-rich repeat kinase 2 (LRRK2), human (human, UniProt Q5S007 1-2527); assay: PP1 dodecapeptide array on cellulose membrane
T1 construct: Protein as present in MDA-MB231 lysates; also called dardarin
T1 sequence (Q5S007 whole entry R50H/L212S): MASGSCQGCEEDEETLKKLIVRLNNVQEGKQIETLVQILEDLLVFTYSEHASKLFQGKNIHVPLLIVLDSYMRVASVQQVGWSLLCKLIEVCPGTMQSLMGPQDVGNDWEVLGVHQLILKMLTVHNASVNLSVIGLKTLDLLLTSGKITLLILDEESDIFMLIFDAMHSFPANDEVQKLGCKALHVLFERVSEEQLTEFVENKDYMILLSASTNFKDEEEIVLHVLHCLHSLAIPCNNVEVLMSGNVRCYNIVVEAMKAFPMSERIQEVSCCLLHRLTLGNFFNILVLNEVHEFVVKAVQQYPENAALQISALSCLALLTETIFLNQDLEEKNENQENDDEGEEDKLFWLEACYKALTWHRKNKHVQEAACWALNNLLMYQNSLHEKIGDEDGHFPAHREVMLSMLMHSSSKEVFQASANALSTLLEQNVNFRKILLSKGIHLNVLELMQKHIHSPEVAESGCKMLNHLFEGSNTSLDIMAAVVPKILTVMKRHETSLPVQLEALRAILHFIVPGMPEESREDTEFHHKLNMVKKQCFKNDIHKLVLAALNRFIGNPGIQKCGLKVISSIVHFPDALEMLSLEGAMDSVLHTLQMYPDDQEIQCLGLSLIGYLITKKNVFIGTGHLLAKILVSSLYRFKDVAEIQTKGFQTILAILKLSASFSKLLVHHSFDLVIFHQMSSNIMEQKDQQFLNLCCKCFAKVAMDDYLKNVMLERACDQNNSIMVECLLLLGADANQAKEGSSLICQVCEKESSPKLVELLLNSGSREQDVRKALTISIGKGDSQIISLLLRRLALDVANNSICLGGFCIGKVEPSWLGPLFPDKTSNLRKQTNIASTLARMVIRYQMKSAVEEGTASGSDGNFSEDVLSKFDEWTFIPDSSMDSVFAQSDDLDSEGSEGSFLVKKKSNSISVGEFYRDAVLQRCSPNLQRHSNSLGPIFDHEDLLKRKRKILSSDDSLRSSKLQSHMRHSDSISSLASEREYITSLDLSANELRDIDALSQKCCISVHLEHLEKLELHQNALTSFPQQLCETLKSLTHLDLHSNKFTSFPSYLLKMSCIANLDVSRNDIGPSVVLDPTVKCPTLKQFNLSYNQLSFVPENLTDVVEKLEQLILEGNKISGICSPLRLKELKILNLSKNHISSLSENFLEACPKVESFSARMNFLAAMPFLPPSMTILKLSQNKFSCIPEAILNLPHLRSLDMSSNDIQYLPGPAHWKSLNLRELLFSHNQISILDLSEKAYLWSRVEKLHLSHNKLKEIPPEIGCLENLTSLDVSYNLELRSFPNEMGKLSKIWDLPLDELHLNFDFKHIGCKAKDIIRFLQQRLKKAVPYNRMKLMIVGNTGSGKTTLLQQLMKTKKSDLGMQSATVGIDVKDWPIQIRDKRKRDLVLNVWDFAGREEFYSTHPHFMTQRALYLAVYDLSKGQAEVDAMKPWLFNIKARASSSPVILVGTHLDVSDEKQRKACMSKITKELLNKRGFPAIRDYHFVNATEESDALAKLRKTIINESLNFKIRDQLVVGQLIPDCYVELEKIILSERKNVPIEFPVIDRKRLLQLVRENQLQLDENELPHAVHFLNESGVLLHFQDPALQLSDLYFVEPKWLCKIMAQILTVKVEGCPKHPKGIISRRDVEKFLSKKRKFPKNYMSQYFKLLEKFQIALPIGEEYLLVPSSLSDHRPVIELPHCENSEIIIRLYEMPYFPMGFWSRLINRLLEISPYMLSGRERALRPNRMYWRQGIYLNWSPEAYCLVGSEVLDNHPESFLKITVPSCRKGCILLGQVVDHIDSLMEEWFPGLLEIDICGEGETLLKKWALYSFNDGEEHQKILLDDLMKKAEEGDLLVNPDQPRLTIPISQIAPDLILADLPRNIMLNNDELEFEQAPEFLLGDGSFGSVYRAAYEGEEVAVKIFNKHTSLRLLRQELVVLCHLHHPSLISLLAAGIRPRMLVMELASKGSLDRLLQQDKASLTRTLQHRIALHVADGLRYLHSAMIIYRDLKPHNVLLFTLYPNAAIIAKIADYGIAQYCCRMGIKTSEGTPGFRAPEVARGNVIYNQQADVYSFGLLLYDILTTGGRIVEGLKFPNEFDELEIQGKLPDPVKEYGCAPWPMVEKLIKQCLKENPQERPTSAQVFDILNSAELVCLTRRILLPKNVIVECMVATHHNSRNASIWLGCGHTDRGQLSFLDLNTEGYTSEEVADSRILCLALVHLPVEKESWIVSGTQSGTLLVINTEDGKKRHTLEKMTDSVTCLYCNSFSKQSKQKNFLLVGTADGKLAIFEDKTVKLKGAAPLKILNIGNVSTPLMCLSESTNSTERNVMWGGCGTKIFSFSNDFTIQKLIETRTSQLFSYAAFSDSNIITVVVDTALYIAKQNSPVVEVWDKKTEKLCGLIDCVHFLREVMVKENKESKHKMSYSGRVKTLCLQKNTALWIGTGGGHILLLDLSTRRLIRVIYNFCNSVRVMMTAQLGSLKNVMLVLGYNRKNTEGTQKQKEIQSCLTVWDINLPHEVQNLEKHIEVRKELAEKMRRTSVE

Row | remaining at 24 h, 100 µM [1] | stability in serum (resistance to proteases) ([1]; human serum, 37°C, result in words) | binding result [2] | Molecule
1 | > 90% | particularly high | – | CC[C@H](C)[C@H](NC(=O)[C@H](CCC(=O)O)NC(=O)[C@H](CC(C)C)NC(=O)[C@H](CC(C)C)NC(=O)[C@H](CCCNC(=N)N)NC(=O)[C@H](CC(N)=O)NC(=O)[C@@H](NC(=O)[C@H](CC(C)C)NC(=O)[C@H](CCCNC(=N)N)NC(=O)[C@H](CO)NC(=O)[C@H](Cc1c[nH]c2ccccc12)NC(=O)[C@H](Cc1ccccc1)NC(=O)CN)[C@@H](C)CC)C(=O)NCCCCCC(=O)N[C@@H](CO)C(=O)N[C@@H](CCCNC(=N)N)C(=O)N[C@@H](CCCNC(=N)N)C(=O)N[C@H](C(=O)N[C@H](C(=O)N[C@@H](CO)C(=O)N[C@@H](CCCNC(=N)N)C(=O)N[C@@H](C)C(=O)N[C@@H](CCCCN)C(=O)N[C@@H](CC(C)C)C(=O)N[C@@H](C)C(=O)N[C@@H](C)C(=O)N[C@@H](C)C(=O)N[C@@H](CC(C)C)C(=O)O)[C@@H](C)CC)C(C)C [Peptide 1, GFWSRLINRLLEI- AHx -SRRVISRAKLAAAL] (H-GFWSRLINRLLEI[Ahx]SRRVISRAKLAAAL-OH)
2 | > 90% | – | – | GFWSRLINRLLEIGGSSRRVISRAKLAAAL [Peptide 2, GFWSRLINRLLEI- GGS -SRRVISRAKLAAAL]
3 | – | – | binds | VQGSRPGKNVQLTENE (Synthetic peptide, isolated fragment of PP1) [Peptide 19 (VQGSRPGKNVQLTENE), fragment of PP1]
4 | – | – | binds | AEVVAKFLHKHDLDLICRAH (Synthetic peptide, isolated fragment of PP1) [Peptide 20 (AEVVAKFLHKHDLDLICRAH), fragment of PP1]
5 | – | – | binds | NPGGRPITPPRNSAKAKK (Synthetic peptide, isolated fragment of PP1) [Peptide 21 (NPGGRPITPPRNSAKAKK), fragment of PP1]
